Data from paper PMC3813431 (Aquatic toxicology (Amsterdam, Netherlands), 2013).
“Also recorded” adds a separate entry of the source. Like-named read-outs stand apart in the source and are kept apart here. Marks after values point to notes of the source that are not given here.

Tests used:
[1] = molecular target: ryanodine receptor, isoform 1 (RyR1) (Oncorhynchus mykiss, UniProt A0A8C7UX14); format: binding, rainbow trout (Oncorhynchus mykiss); conditions: for Comparison (Ratio): Fish RPF compared to Mammal RPF; for Log-Probit Slope / Bmax / Bmax (pmol/mg): Mean ± SEM; for Bmax / Bmax (pmol/mg): maximal level of [3H]Ry binding at saturation; for Fish RPF: relative potency factor, Q20 relative to PCB 95; for activity toward RyR1: rainbow trout preparation
Chain of ryanodine receptor, isoform 1 (RyR1) (A0A8C7UX14 1-5031): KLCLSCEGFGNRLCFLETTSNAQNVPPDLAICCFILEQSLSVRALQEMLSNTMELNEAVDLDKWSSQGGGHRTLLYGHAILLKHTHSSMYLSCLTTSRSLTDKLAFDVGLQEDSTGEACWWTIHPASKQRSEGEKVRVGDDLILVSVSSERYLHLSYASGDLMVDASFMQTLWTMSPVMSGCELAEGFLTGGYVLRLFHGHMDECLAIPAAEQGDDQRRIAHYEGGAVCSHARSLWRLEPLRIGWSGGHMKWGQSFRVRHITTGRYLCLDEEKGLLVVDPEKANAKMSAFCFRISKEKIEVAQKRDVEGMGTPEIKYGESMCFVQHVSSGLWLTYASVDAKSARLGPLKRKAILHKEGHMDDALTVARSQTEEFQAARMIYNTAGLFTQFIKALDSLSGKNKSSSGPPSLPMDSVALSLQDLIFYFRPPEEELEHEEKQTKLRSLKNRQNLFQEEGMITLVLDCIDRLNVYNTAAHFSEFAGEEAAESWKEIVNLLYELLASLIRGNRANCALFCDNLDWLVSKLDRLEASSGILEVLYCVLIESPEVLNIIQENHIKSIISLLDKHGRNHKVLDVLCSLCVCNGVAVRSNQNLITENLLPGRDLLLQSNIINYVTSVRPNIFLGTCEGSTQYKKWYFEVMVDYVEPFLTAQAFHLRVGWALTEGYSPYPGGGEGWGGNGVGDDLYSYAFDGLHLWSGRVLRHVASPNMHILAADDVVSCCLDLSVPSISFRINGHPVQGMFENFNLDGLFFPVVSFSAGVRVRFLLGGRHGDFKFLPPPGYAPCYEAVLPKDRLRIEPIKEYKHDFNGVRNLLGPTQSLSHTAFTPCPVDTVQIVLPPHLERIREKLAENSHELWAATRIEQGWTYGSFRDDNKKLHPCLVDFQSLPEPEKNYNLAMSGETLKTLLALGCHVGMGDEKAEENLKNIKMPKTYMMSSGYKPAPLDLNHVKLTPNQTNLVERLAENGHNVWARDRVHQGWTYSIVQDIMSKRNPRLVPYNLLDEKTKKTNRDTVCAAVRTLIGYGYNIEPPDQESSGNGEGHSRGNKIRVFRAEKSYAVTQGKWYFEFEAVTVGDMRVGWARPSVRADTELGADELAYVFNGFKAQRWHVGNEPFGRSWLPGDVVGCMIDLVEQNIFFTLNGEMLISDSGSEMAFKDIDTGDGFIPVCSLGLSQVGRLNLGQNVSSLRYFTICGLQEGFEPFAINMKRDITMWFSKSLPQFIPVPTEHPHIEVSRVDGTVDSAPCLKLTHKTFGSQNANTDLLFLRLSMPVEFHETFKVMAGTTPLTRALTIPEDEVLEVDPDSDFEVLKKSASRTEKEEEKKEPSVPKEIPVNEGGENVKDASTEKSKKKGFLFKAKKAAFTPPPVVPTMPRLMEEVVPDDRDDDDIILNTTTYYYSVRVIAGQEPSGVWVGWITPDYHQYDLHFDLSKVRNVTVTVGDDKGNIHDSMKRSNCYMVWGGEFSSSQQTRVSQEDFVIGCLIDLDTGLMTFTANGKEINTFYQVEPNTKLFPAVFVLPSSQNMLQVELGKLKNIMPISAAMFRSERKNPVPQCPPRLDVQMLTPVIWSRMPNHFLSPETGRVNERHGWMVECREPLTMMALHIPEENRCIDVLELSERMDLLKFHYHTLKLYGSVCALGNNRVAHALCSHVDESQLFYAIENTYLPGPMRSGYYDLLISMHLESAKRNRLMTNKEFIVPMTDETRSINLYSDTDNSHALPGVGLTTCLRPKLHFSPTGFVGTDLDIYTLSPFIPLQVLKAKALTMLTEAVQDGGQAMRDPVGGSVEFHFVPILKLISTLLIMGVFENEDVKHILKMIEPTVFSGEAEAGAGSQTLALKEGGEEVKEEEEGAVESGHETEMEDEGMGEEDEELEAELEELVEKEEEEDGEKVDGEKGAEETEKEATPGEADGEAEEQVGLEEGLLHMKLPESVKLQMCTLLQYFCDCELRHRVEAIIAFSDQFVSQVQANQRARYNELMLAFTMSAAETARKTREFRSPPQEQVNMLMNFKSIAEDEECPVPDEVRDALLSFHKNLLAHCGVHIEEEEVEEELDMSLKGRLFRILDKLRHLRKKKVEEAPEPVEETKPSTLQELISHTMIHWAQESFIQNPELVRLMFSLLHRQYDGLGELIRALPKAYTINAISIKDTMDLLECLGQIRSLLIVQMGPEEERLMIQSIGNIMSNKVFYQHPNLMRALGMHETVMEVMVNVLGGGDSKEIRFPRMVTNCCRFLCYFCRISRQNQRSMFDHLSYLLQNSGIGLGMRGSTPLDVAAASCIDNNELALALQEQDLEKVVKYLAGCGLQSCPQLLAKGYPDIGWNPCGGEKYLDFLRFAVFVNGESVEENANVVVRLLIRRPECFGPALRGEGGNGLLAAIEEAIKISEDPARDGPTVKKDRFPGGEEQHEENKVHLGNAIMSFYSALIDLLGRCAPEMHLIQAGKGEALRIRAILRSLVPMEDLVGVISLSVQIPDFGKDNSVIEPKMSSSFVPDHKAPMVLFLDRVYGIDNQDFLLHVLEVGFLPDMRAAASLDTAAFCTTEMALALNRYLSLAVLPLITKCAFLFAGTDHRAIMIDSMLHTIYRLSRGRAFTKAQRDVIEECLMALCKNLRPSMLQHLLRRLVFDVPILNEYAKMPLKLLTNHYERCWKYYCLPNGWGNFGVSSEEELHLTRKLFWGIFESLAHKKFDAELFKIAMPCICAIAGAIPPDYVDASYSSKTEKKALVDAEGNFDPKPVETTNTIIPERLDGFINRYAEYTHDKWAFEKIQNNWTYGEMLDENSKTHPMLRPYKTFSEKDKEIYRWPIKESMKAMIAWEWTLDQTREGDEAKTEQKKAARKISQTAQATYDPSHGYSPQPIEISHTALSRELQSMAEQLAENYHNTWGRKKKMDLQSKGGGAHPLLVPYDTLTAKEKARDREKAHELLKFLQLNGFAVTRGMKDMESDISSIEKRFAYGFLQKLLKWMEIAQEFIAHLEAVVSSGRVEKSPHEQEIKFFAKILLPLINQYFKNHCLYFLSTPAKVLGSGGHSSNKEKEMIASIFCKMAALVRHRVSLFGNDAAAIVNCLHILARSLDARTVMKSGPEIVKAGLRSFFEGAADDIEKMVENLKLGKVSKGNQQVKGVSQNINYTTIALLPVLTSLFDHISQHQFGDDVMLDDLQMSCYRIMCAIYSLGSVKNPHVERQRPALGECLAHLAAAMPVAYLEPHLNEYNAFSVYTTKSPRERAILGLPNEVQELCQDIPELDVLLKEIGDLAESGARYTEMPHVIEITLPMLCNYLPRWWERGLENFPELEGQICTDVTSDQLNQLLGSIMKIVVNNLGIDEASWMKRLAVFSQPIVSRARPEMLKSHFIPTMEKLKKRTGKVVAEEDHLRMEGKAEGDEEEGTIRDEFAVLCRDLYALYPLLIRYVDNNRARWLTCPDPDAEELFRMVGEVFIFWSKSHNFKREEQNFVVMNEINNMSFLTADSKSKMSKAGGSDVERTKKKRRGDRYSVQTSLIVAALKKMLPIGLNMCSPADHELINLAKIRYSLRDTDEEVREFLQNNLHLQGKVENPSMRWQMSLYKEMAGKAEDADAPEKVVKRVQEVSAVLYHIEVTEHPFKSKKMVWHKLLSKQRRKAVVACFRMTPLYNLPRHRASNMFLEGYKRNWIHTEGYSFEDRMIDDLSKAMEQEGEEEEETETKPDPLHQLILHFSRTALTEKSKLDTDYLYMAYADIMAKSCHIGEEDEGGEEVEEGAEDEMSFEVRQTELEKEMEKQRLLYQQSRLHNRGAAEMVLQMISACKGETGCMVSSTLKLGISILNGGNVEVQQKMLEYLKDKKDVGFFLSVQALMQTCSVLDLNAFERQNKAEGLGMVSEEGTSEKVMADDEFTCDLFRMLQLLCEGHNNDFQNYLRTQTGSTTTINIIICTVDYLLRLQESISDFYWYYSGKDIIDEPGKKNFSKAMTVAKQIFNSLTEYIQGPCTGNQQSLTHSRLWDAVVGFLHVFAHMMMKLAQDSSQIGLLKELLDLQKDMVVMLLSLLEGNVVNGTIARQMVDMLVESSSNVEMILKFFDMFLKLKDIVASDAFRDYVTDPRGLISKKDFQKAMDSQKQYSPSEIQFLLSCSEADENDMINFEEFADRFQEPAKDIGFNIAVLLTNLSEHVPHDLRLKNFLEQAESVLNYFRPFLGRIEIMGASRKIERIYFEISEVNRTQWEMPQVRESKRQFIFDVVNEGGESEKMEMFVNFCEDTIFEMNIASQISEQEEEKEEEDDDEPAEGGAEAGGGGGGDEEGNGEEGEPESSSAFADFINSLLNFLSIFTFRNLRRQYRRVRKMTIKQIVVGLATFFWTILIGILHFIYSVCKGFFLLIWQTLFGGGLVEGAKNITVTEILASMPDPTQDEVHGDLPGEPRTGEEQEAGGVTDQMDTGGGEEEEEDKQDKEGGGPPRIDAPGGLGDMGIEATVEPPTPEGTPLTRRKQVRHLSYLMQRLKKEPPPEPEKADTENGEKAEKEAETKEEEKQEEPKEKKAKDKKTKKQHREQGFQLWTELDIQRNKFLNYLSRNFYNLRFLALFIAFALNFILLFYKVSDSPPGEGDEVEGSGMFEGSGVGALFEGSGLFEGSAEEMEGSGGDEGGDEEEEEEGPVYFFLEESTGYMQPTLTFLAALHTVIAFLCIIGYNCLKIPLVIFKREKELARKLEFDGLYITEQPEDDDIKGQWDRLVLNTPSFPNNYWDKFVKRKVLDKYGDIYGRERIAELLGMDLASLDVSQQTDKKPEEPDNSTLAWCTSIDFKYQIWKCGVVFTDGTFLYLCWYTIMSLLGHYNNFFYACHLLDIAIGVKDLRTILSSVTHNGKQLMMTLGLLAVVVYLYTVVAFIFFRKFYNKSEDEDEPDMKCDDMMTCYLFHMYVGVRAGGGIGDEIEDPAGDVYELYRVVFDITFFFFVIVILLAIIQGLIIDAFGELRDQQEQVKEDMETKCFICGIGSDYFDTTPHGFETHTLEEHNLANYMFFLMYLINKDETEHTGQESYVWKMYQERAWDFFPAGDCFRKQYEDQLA

RyR1 [2] = experiment: Mammalian RyR1 [3H]ryanodine binding; design: species or system rabbit; conditions: relative potency factor, EC2X relative to PCB 95; from literature EC2X values
RyR1 [3] = conditions: estimated from QSAR; ref Rayne and Forest 2010; cited from earlier work
RyR1 [4] = conditions: ref Pessah et al. 2006; cited from earlier work
[5] = linear regression of log-probit plot, (−) inactive
[6] = sigmoidal fit of enhanced [3H]Ry binding, PCB 0–20 μM, (−) inactive

SMILES | EC50 ([1]; single compound) | Mammal RPF (RyR1 [2]) | Mammal EC2X (μM) (RyR1 [3]) | Comparison (Ratio) [1] | Log-Probit Slope [1, 5] | Bmax ([1]; (−) inactive) | Fish RPF ([1]; (−) inactive) | EC50 [1, 6] | Bmax (pmol/mg) ([1]; (−) inactive) | activity toward RyR1 [1] | Mammal EC2X (RyR1 [4]) | activity toward the RyR1 in mammals (RyR1 [4]) | receptor activity, % of baseline ([1]; at 20 μM (data not shown)) | Log-Probit Slope ([1]; parameter determined using activating concentrations only) | EC20 ([1]; read-out: Fish Normalized Q20 (μM)) | Emax ([1]; read-out: Maximum Response (% of Control))
Brc1ccc(Oc2cc(Br)ccc2Br)c(Br)c1 [PBDE49] | 3480 nM |  |  |  |  |  |  |  |  |  |  |  |  |  |  | 
Clc1cccc(-c2cccc(Cl)c2Cl)c1 [PCB 20] |  | 0.11 | 2 ^c μM | 0.05 | 2.83 ± 0.10 | 0.34 ± 0.02 pmol/mg | 0.01 | 1800 nM |  |  |  |  |  |  |  | 
Clc1ccc(-c2ccc(Cl)cc2Cl)cc1 [PCB 28] |  | 0.04 | 5 ^c μM |  |  |  |  | > 20000 nM | - | inactive |  |  |  |  |  | 
Clc1ccc(Cl)c(-c2cccc(Cl)c2Cl)c1 [PCB 44] |  | 0.28 | 0.8 ^c μM | 0.29 | 4.20 ± 0.10 | 0.50 ± 0.03 pmol/mg | 0.08 | 4500 nM |  |  |  |  |  |  |  | 
Clc1ccc(Cl)c(-c2cc(Cl)ccc2Cl)c1 [PCB 52] |  | 0.45 |  | 0.69 | 2.66 ± 0.09 | 0.77 ± 0.05 pmol/mg | 0.31 | 2940 nM |  |  | 0.49 µM |  |  |  |  | 
Clc1ccc(-c2ccc(Cl)c(Cl)c2)c(Cl)c1 [PCB 66] |  | 0.09 |  | 0.44 | 2.93 ± 0.00 | 0.42 ± 0.02 pmol/mg | 0.04 | 1160 nM |  |  | 2.38 µM |  |  |  |  | 
Clc1ccc(-c2ccc(Cl)c(Cl)c2)cc1Cl [PCB 77] |  | 0.04 |  |  |  |  |  | > 20000 nM | - | negligible impact; also recorded: inactive | 5.00 µM |  |  |  |  | 
Clc1ccc(Cl)c(-c2c(Cl)ccc(Cl)c2Cl)c1 [PCB 95] |  | 1.00 |  | 1.00 | 2.15 ± 0.05 | 0.95 ± 0.04 pmol/mg | 1.00 | 1060 nM |  |  | 0.22 µM |  |  |  |  | 
Clc1ccc(-c2cc(Cl)c(Cl)cc2Cl)c(Cl)c1 [PCB 99] |  | 0.08 |  | 0.35 | 2.30 ± 0.05 | 0.61 ± 0.03 pmol/mg | 0.03 | 3590 nM |  |  | 2.80 µM |  |  |  |  | 
Clc1ccc(Cl)c(-c2cc(Cl)c(Cl)cc2Cl)c1 [PCB 101] |  | 0.26 |  | 1.64 | 1.83 ± 0.04 | 0.64 ± 0.04 pmol/mg | 0.42 | 1980 nM |  |  | 0.86 µM |  |  |  |  | 
Clc1ccc(-c2c(Cl)ccc(Cl)c2Cl)cc1Cl [PCB 110] |  | 0.19 |  |  | 2.60 ± 0.01 | 0.48 ± 0.03 pmol/mg |  | 1080 nM |  |  | 1.13 µM |  |  |  |  | 
Clc1ccc(-c2cc(Cl)c(Cl)c(Cl)c2)cc1Cl [PCB 126] |  |  |  |  |  |  |  |  |  |  |  | inactive |  |  |  | 
Clc1ccc(-c2c(Cl)ccc(Cl)c2Cl)c(Cl)c1Cl [PCB 132] |  | 0.24 |  | 0.10 |  | 0.46 ± 0.02 pmol/mg | 0.02 | 1320 nM |  |  | 0.91 µM |  | 88 % of baseline | 1.70 ± 0.04 ^a |  | 
Clc1ccc(Cl)c(-c2c(Cl)ccc(Cl)c2Cl)c1Cl [PCB 136] |  | 0.96 |  | 0.63 | 3.16 ± 0.14 | 0.96 ± 0.04 pmol/mg | 0.60 | 1300 nM |  |  | 0.23 µM |  |  |  |  | 
Clc1cc(Cl)c(-c2c(Cl)ccc(Cl)c2Cl)cc1Cl [PCB 149] |  | 0.67 |  | 1.45 | 3.40 ± 0.08 | 0.76 ± 0.04 pmol/mg | 0.96 | 810 nM |  |  | 0.33 µM |  |  |  |  | 
Clc1ccc(Cl)c(-c2c(Cl)c(Cl)cc(Cl)c2Cl)c1 [PCB 151] |  | 0.44 |  | 0.45 | 1.91 ± 0.04 | 0.77 ± 0.04 pmol/mg | 0.20 | 2760 nM |  |  | 0.50 µM |  |  |  |  | 
Clc1cc(Cl)c(-c2cc(Cl)c(Cl)cc2Cl)cc1Cl [PCB 153] |  | 0.18 |  | 0.41 | 2.25 ± 0.05 | 0.54 ± 0.02 pmol/mg | 0.07 | 5750 nM |  |  | 1.21 µM |  |  |  |  | 
Clc1ccc(-c2cc(Cl)c(Cl)c(Cl)c2Cl)c(Cl)c1Cl [PCB 170] |  | 0.30 |  |  |  |  |  | > 20000 nM | - | inactive | 0.73 µM |  |  |  |  | 
Clc1cc(Cl)c(-c2cc(Cl)c(Cl)c(Cl)c2Cl)cc1Cl [PCB 180] |  | 0.23 |  | 0.17 | 1.84 ± 0.06 | 0.40 ± 0.03 pmol/mg |  |  |  |  | 0.96 µM |  |  |  | 11.2 µM | 132 ± 9.87%
Clc1cc(Cl)c(-c2c(Cl)cc(Cl)c(Cl)c2Cl)cc1Cl [PCB 183] |  | 0.40 |  | 0.16 | 1.58 ± 0.09 | 0.42 ± 0.03 pmol/mg | 0.06 | 1820 nM |  |  | 0.55 µM |  |  |  |  | 
Clc1cc(Cl)c(-c2c(Cl)c(Cl)cc(Cl)c2Cl)cc1Cl [PCB 187] |  | 0.38 |  | 0.16 | 3.05 ± 0.07 | 0.45 ± 0.02 pmol/mg | 0.06 | 1300 nM |  |  | 0.58 µM |  |  |  |  | 
Clc1cc(-c2cc(Cl)c(Cl)c(Cl)c2Cl)c(Cl)c(Cl)c1Cl [PCB 194] |  | 0.44 | 0.5 ^c μM | 0.09 | 8.94 ± 0.34 | 0.36 ± 0.02 pmol/mg | 0.04 | 1270 nM |  |  |  |  |  |  |  | 
